Assay [1] addresses T1, Human immunodeficiency virus type 1 integrase (Human immunodeficiency virus 1, UniProt Q7ZJM1). Nature of the assay: Inhibitory activity against HIV integrase in the strand transfer step.
Assay [2] concerns the target T1, Human immunodeficiency virus type 1 integrase. As to the kind of experiment: Inhibitory activity against HIV integrase in the 3' processing step.

In general, IC50 refers to the point on the concentration scale where inhibition reaches its midpoint. A higher IC50 goes with lower potency.

T1 sequence (Q7ZJM1 whole entry): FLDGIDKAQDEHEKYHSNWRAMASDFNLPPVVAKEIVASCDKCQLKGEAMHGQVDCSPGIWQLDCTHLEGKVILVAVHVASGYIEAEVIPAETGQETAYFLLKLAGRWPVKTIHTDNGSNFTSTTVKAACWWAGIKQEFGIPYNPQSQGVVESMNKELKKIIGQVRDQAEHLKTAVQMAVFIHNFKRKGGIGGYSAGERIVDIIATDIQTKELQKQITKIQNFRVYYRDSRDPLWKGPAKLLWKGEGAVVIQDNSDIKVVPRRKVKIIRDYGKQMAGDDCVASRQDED

The molecule `Nc1ncnc2cc3c(cc12)ncn3C1COC(COP(=O)(O)O)C1` (stereo not given) showed an IC50 in assay [1] of 68 µM.

Consider `Nc1ncnc2c1ccc1ncn(C3COC(COP(=O)(O)O)C3)c12` (stereo not given), for which the half-inhibitory concentration (IC50) was 53 µM in assay [1] and 75 µM in assay [2]. Regarding `Nc1ncnc2cc3c(cc12)ncn3C1CCC(COP(=O)(O)O)O1` (stereo not given), the IC50 in assay [1] worked out at 550 µM; in assay [2], 750 µM.

These data come from ChEMBL document CHEMBL1130893, “Inhibition of HIV integrase by novel nucleotides bearing tricyclic bases” (Bioorg Med Chem Lett, 1998).
